Assay results as given in patent US10138222B2, “Substituted benzamides as RIPK2 inhibitors” (Boehringer Ingelheim International GmbH, priority 2016, dated 2018).

The compounds below were run against RIPK2 (Homo sapiens (Human), UniProt O43353) (assay: RIPK2 inhibition, ADP-Glo Kinase Assay). Conditions: 8His-RIPK2 FL enzyme 8 nM, ATP 5 μM, 15 minutes pre-incubation, 60 minutes at 37° C., luminescence.
Type: biochemical
Procedure, shortened: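 Full-length 8His-RIPK2 (8 nM) preincubated 15 min at RT with compound (1% DMSO), then 5 μM ATP added for 60 min at 37 °C in HEPES pH 7.5 buffer with Mg2+/Mn2+. ADP measured by ADP-Glo luminescence; activity expressed as % of vehicle control, no-enzyme wells as low control.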

RIPK2, sequence (O43353 whole entry): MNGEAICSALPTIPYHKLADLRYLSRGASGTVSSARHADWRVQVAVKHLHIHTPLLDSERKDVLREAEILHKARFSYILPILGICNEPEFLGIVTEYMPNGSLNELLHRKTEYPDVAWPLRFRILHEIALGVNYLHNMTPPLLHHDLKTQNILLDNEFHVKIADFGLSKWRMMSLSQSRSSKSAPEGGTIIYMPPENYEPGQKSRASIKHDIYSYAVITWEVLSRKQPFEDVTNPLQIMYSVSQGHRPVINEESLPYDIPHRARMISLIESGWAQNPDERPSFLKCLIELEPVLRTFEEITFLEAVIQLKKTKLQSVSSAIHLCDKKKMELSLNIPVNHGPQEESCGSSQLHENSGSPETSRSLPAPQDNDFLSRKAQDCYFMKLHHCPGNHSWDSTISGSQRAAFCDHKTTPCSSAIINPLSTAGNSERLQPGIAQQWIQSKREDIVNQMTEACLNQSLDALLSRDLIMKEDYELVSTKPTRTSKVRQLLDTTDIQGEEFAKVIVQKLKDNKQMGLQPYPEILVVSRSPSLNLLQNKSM

SMILES	IC50
Cc1ccc(C(=O)NC2CC2)cc1-c1cnn(-c2cncc(NC3CCN(C4CCOC(C)C4)CC3)c2)c1 (centres unmarked) [Example 165, N-cyclopropyl-4-methyl-3-[1-(5-{[1-(2-methyloxan-4-yl)piperidin-4-yl]amino}pyridin-3-yl)-1H-pyrazol-4-yl]benzamide]	1.2 nM
Cc1ccc(C(=O)NC2CC2)cc1-c1cnn(-c2cncc(NC3CCN(C4CCOC4)CC3)c2)c1 (centres unmarked) [Example 166, N-cyclopropyl-4-methyl-3-[1-(5-{[1-(oxolan-3-yl)piperidin-4-yl]amino}pyridin-3-yl)-1H-pyrazol-4-yl] benzamide]	0.94 nM
Cc1cc(F)c(C(=O)NC2CC2)cc1-c1cnn(-c2cncc(N[C@@H]3CCN(C)C[C@@H]3F)c2)c1 [Example 170]	1.8 nM
Cc1cc(F)c(C(=O)NC2CC2)cc1-c1cnn(-c2cncc(OC[C@H]3CCN(C)C3)c2)c1 [Example 172, N-Cyclopropyl-2-fluoro-4-methyl-5-{1-[5-((S)-1-methyl-pyrrolidin-3-ylmethoxy)-pyridin-3-yl]-1H-pyrazol-4-yl}-benzamide]	1.8 nM
CO[C@@H]1CN(C)CC[C@@H]1Nc1cncc(-n2cc(-c3cc(C(=O)NC4CC4)c(F)cc3Cl)cn2)c1 [Example 173, 4-Chloro-N-cyclopropyl-2-fluoro-5-{1-[5-((3R,4S)-3-methoxy-1-methyl-piperidin-4-ylamino)-pyridin-3-yl]-1H-pyrazol-4-yl}-benzamide]	1.8 nM
Cc1cc(F)c(C(=O)NC2CC2)cc1-c1cnn(-c2cncc(NC3CCN(CCF)CC3)c2)c1 [Example 174, N-Cyclopropyl-2-fluoro-5-(1-{5-[1-(2-fluoro-ethyl)-piperidin-4-ylamino]-pyridin-3-yl}-1H-pyrazol-4-yl)-4-methyl-benzamide]	1.5 nM

Continued, values first:

IC50	SMILES
2.1 nM	Cc1ccc(C(=O)NC2CC2)cc1-c1cnn(-c2cncc(NC3CCN(C4CCOCC4C)CC3)c2)c1 (centres unmarked) [Example 164, N-cyclopropyl-4-methyl-3-[1-(5-{[1-(3-methyloxan-4-yl)piperidin-4-yl]amino}pyridin-3-yl)-1H-pyrazol-4-yl]benzamide]
1 nM	Cc1ccc(C(=O)NC2CC2)cc1-c1cnn(-c2cncc(NC3CCN(CC4C5COCC54)CC3)c2)c1 (centres unmarked) [Example 167, N-cyclopropyl-4-methyl-3-(1-{5-[(1-{3-oxabicyclo[3.1.0]hexan-6-ylmethyl}piperidin-4-yl)amino]pyridin-3-yl}-1H-pyrazol-4-yl) benzamide]
0.95 nM	Cc1ccc(C(=O)NC2CC2)cc1-c1cnn(-c2cncc(NC3CCN(CC4COCCO4)CC3)c2)c1 (centres unmarked) [Example 168, N-cyclopropyl-3-[1-(5-{[1-(1,4-dioxan-2-ylmethyl)piperidin-4-yl]amino}pyridin-3-yl)-1H-pyrazol-4-yl]-4-methylbenzamide]
1.3 nM	Cc1cc(F)c(C(=O)NC2CC2)cc1-c1cnn(-c2cncc(N[C@H]3CCN(C)C[C@H]3F)c2)c1 [Example 169]
1.4 nM	Cc1cc(F)c(C(=O)NC2CC2)cc1-c1cnn(-c2cncc(N3CCC(N(C)C)CC3)c2)c1 [Example 171, N-Cyclopropyl-5-[1-(4-dimethyl-amino-3,4,5,6-tetrahydro-2H-[1,3″]bipyridinyl-5″-yl)-1H-pyrazol-4-yl]-2-fluoro-4-methyl-benzamide]
